The structures appear in SMILES notation.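 96-well plates; 48 h exposure; 5 concentrations. Endpoints by linear interpolation between flanking doses. Not reached: highest tested concentration assigned. At the GI50, growth is halved.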 Active and inactive are the calls of the source. Cut-off read from the data, not from the text of the source: active = GI50 up to about 1.1 µM and inactive = higher. *1 amine or outer side, *2 acyl side, *3 side chain or, on linkers, in order; H or OH if unused. Where a SMILES comes first, the peptide text is derived from it. Bridges are numbered along the chain shown (N, C = ends). [ ]: non-standard residue; d: D form. The star is where a group is joined. X36 = O=C(C(CCCCNO[*:3])N[*:1])[*:2]; Fmoc = O=C(OCC1c2ccccc2-c2ccccc21)*

Data on eleven molecules can be found in ChEMBL document CHEMBL1201862, “PubChem BioAssay data set” (2004).

Test systems include OVCAR-5; CCRF-CEM; SK-MEL-28; IGROV-1; SF-268; Malme-3M; A498; HT-29; HOP-92; COLO 205; OVCAR-8; SW-620; M14; NCI-H460; HL-60; HCT-15; NCI-H23; UACC-257; MDA-MB-231.
Common to all, as to experiment: inhibition of tumour cell growth, NCI panel, 48 h

As for `C/C(CN1C(=O)c2ccccc2C1=O)=N\NS(=O)(=O)c1ccccc1`, the GI50 with OVCAR-5, in the assay on CCRF-CEM, in the assay on SK-MEL-28, in the assay with IGROV-1, with SF-268 and with Malme-3M was > 100 µM (inactive) each time. The GI50 with A498, with HT-29, in the assay on HOP-92, with COLO 205, in the assay with OVCAR-8 and in the assay with SW-620 was > 100 µM (inactive) each time. For the same molecule, the GI50 with M14 is > 100 µM (inactive); in the assay with NCI-H460 it was > 100 µM (inactive); in the assay on HL-60 it was > 100 µM (inactive); in the assay with HCT-15, above 100 µM; in the assay on NCI-H23, > 100 µM (inactive); in the assay with UACC-257, > 100 µM (inactive).

Take `O=C1CCC2(c3ccc(F)cc3)Nc3ccccc3N12` (stereo not given): the GI50 with OVCAR-5, in the assay with CCRF-CEM, with SK-MEL-28, in the assay on IGROV-1, in the assay with SF-268 and in the assay on Malme-3M was > 100 µM (inactive) throughout. The GI50 in the assay on A498, in the assay on HT-29, in the assay on HOP-92, in the assay on COLO 205, in the assay with OVCAR-8 and with SW-620 was > 100 µM (inactive) in each case. The GI50 was > 100 µM (inactive) in the assay on M14; > 100 µM (inactive) with NCI-H460; > 100 µM (inactive) in the assay with HL-60; above 100 µM in the assay on HCT-15; > 100 µM (inactive) with NCI-H23; > 100 µM (inactive) with UACC-257.

For the molecule `NC(=O)CNC(=O)C1CCCN1C(=O)C1CCCCNOC(=O)CCC(NC(=O)OCC2c3ccccc3-c3ccccc32)C(=O)NC(Cc2c[nH]c3ccccc23)C(=O)N1` (stereo not given) (Fmoc-EW[X36]PG-NH2; ester 1-3; configuration not given here), the GI50 with OVCAR-5, in the assay on CCRF-CEM, with SK-MEL-28, in the assay with IGROV-1, in the assay on SF-268 and with Malme-3M was > 100 µM (inactive) throughout. The GI50 in the assay on HT-29 was > 100 µM (inactive); in the assay with HOP-92, > 100 µM (inactive); in the assay with COLO 205 it was > 100 µM (inactive); with OVCAR-8, > 100 µM (inactive); in the assay on SW-620, > 100 µM (inactive); with M14, 54.3 µM (inactive). In addition, the GI50 is > 100 µM (inactive) with NCI-H460; > 100 µM (inactive) in the assay on HL-60; above 100 µM with HCT-15; > 100 µM (inactive) in the assay with NCI-H23; 15.2 µM (inactive) with MDA-MB-231; > 100 µM (inactive) with UACC-257.

On to `COc1ccc(NC(=O)C2=CC(=O)c3ccc(O)cc3C2=O)c(OC)c1`, for which the GI50 in the assay with OVCAR-5, in the assay with CCRF-CEM, with SK-MEL-28, in the assay on IGROV-1, with SF-268 and with Malme-3M was > 100 µM (inactive) throughout. The GI50 with A498, in the assay with HT-29, with HOP-92, in the assay with COLO 205, in the assay with OVCAR-8 and in the assay on SW-620 was > 100 µM (inactive) in each case. Besides, the GI50 in the assay with M14 is > 100 µM (inactive); in the assay on NCI-H460, > 100 µM (inactive); in the assay on HL-60 it was > 100 µM (inactive); in the assay on HCT-15, above 100 µM; in the assay on NCI-H23, > 100 µM (inactive); with UACC-257, > 100 µM (inactive).

Take `Nc1ccc(CCN2CCN(c3cccc(C(F)(F)F)c3)CC2)cc1`: the GI50 is > 100 µM (inactive) in the assay with OVCAR-5; 5.07 µM (inactive) in the assay with CCRF-CEM; > 100 µM (inactive) in the assay on SK-MEL-28; > 100 µM (inactive) in the assay with IGROV-1; > 100 µM (inactive) with SF-268; > 100 µM (inactive) in the assay on Malme-3M. In addition, the GI50 in the assay with A498 is 80.9 µM (inactive); with HT-29 it was 70 µM (inactive); in the assay on HOP-92, 54.8 µM (inactive); in the assay with COLO 205 it was > 100 µM (inactive); in the assay with OVCAR-8, > 100 µM (inactive); in the assay with M14, 82.6 µM (inactive). Also, the GI50 with NCI-H460 was > 100 µM (inactive); in the assay on HL-60 it was 9.51 µM (inactive); with HCT-15 it was above 100 µM; with NCI-H23 it was > 100 µM (inactive); in the assay with UACC-257, 47 µM (inactive).

In the case of `O=C(O)C1CC2CC(=O)C1C2` (stereo not given), the GI50 in the assay with OVCAR-5, with CCRF-CEM, with SK-MEL-28, with IGROV-1, with SF-268 and with Malme-3M was > 100 µM (inactive) in each case. The GI50 with A498, in the assay on HT-29, in the assay on HOP-92, in the assay with COLO 205, with OVCAR-8 and with SW-620 was > 100 µM (inactive) each time. Moreover, the GI50 with M14, in the assay on NCI-H460, with HL-60, with NCI-H23 and in the assay with UACC-257 was > 100 µM (inactive) each time.

Turning to `CCOc1ccc(NCC2CC/C(=C\c3ccc(Cl)cc3)C2=O)cc1` (stereo not given), the GI50 in the assay on OVCAR-5 is > 100 µM (inactive); in the assay on CCRF-CEM it was 9.29 µM (inactive); with SK-MEL-28 it was 50.2 µM (inactive); in the assay on IGROV-1, > 36 µM (inactive); in the assay on SF-268, > 55.2 µM (inactive); with Malme-3M it was 34.5 µM (inactive). In addition, the GI50 with A498 is > 49.5 µM (inactive); in the assay with HT-29, > 42.1 µM (inactive); in the assay on HOP-92 it was 20.3 µM (inactive); in the assay on COLO 205 it was > 37.9 µM (inactive); in the assay with OVCAR-8, > 38.3 µM (inactive); in the assay on SW-620, 17.1 µM (inactive). For the same molecule, the GI50 in the assay with M14 is 20.4 µM (inactive); in the assay with NCI-H460 it was 89.3 µM (inactive); with HL-60, 1.74 µM (inactive); in the assay on HCT-15, 7.73 µM; with NCI-H23, > 48.9 µM (inactive); with UACC-257, > 38.9 µM (inactive).

Turning to `CSc1nc2c(c(O)c(C)c(=O)n2C2OCC(OC(C)=O)C(OC(C)=O)C2OC(C)=O)c(=O)n1C` (stereo not given), the GI50 in the assay with OVCAR-5, with CCRF-CEM, with SK-MEL-28, in the assay on IGROV-1, with SF-268 and in the assay with Malme-3M was > 100 µM (inactive) in each case. The GI50 in the assay on A498, in the assay on HT-29, with HOP-92, in the assay on COLO 205, with OVCAR-8 and in the assay on SW-620 was > 100 µM (inactive) each time. Further, the GI50 in the assay on M14 is > 100 µM (inactive); with NCI-H460 it was > 100 µM (inactive); in the assay with HL-60, > 100 µM (inactive); with HCT-15, above 100 µM; with NCI-H23, > 100 µM (inactive); in the assay with UACC-257, > 100 µM (inactive).

On to `CN/C(=N\C#N)N(Cc1ccccc1)Cc1ccccc1`, for which the GI50 in the assay on OVCAR-5, in the assay with CCRF-CEM, in the assay with SK-MEL-28, with IGROV-1, with SF-268 and in the assay with Malme-3M was > 100 µM (inactive) in each case. In addition, the GI50 with A498, in the assay with HT-29, in the assay with HOP-92, in the assay on COLO 205, with OVCAR-8 and with SW-620 was > 100 µM (inactive) each time. The GI50 in the assay with M14 is > 100 µM (inactive); in the assay on NCI-H460, > 100 µM (inactive); in the assay on HL-60, > 100 µM (inactive); in the assay with HCT-15, above 100 µM; in the assay with NCI-H23, > 100 µM (inactive); with UACC-257 it was > 100 µM (inactive).

Take `NN/C(Cc1ccccc1)=N/NC(N)=S`: the GI50 was > 100 µM (inactive) in the assay on OVCAR-5; 54.1 µM (inactive) in the assay with CCRF-CEM; > 100 µM (inactive) in the assay with SK-MEL-28; > 100 µM (inactive) in the assay with IGROV-1; > 100 µM (inactive) in the assay on SF-268; > 100 µM (inactive) with Malme-3M. For the same molecule, the GI50 with A498, in the assay with HT-29, in the assay with HOP-92, in the assay on COLO 205, with OVCAR-8 and with SW-620 was > 100 µM (inactive) each time. The GI50 is > 100 µM (inactive) in the assay on M14; > 100 µM (inactive) in the assay with NCI-H460; 63 µM (inactive) in the assay with HL-60; 72.6 µM with HCT-15; > 10 µM (inactive) with NCI-H23; > 100 µM (inactive) in the assay on UACC-257.

As to `O=[N+]([O-])c1ccc(-c2nc(/C=N/N3CCCCC3)cs2)o1`, the GI50 with OVCAR-5 was > 100 µM (inactive); in the assay on SK-MEL-28 it was 31.6 µM (inactive); in the assay on IGROV-1, 50.8 µM (inactive); in the assay on SF-268, > 100 µM (inactive); with Malme-3M, 22.8 µM (inactive); with HT-29, 25.9 µM (inactive). Besides, the GI50 in the assay on HOP-92 is > 100 µM (inactive); in the assay on COLO 205, 30.2 µM (inactive); in the assay on OVCAR-8, 92 µM (inactive); with SW-620, > 100 µM (inactive); in the assay with M14 it was 37.4 µM (inactive); in the assay with NCI-H460, 49.2 µM (inactive). Moreover, the GI50 is 20.1 µM (inactive) in the assay on HL-60; 32.6 µM in the assay on HCT-15; 29.2 µM (inactive) in the assay on NCI-H23; 48.4 µM (inactive) in the assay with MDA-MB-231; 19.3 µM (inactive) in the assay with UACC-257.
